# Bridge positions count the residues as written; N and C are the ends. Square brackets hold non-standard residues; d marks the D form. Peptide text beside a SMILES is read from it. * marks the point of attachment. X1 = CC[C@H](C)CCCCC(=O)*; Dab = NCC[C@H](N)C(=O)O
# Assays:
# [1] = Population pharmacokinetic model of PMB in plasma and ELF of patients with MDR-GNB pneumonia; type: in vivo, human
# Description: This was a single-center, prospective study conducted between January 2022 and October 2024 at Fujian Medical University Union Hospital. […] Patients with severe bronchoconstriction, refractory hypoxemia, pregnancy, or those undergoing continuous renal replacement therapy were excluded.
# IV PMB was administered according to the manufacturer’s instructions: a loading dose of 100–150 mg ([…]) followed by maintenance doses of 40–75 mg every 12 h, with an infusion time of approximately 1 h. The decision to administer PMB and its dosing regimen was made by the medical team. Concurrently, selected patients received nebulized PMB at a dose of 25 mg dissolved in 5 mL of half-normal sterile water for injection every 12 h via vibration mesh nebulizer or jet nebulizer over 15 min. Eligible patients received nebulized PMB for 3 days for the treatment of pneumonia. During nebulization, ventilation was performed at a constant flow, targeting an inspiration-to-expiration ratio of 0.5. The respiratory rate was set at 18 breaths/min; the tidal volume was set at 8 mL/kg; and the positive end-expiratory pressure was set at 6 cmH2O.
# For all patients, when the PMB concentration in the plasma and lungs reached a steady state (after at least four doses), one to six samples were collected into EDTA tubes at the following time points: 0 h before administration and 1, 2, 4, 6, 8, and 12 h after administration. The plasma and bronchoalveolar lavage (BAL) fluid samples for drug assays were centrifuged at 12,000 rpm for 5 min. The supernatant was then collected and stored at −80°C until analysis.
# ELF is obtained through BAL. This procedure involves inserting and wedging a fiberoptic bronchoscope into a subsegment of the middle or lower lung lobe. Before performing BAL, the patient’s CT scan is reviewed to select the affected lung segment for lavage. The lavage is performed at the same location using a 0.9% saline solution. The aspirate from the first lavage is usually collected separately and discarded due to potential severe contamination with cells from the proximal airway. Subsequent recovered aspirates are combined, and their volume is measured and recorded. The remaining volume of BAL fluid is immediately centrifuged to separate the supernatant and the cell pellet. Samples used for measuring urea and drug concentrations in the supernatant are collected and frozen until analysis. The concentration of PMB in ELF can be determined using urea as an endogenous biomarker ([4], [8]). Urea concentration in plasma and ELF is typically the same because urea is […], has a low molecular weight, and can rapidly diffuse to establish equilibrium across the capillary-alveolar membrane. By measuring the urea concentration in both BAL fluid and plasma, the dilution factor can be determined, allowing for the calculation of the actual drug concentration in ELF (Eq.1):
# (1) CELF,PMB=CBAL, PMB×Cplasma,urea /CBAL,urea.
# As polymyxin B1 and B2 structures, molecular weights, pharmacological activities, and PK properties were […], their plasma concentrations were summed to obtain total PMB concentrations ([24]). Concentrations of PMB were determined by a validated liquid chromatography–tandem mass spectrometry assay with minor modifications ([25]). […] For plasma, intra- and interday accuracies ranged from 80.6% to 114.9%, with a coefficient of variation (CV) of 2.6%–14.8%. For BAL fluid, accuracy ranged from 82.3% to 114.3%, with a CV of 3.4%–13.7%. All sample concentrations exceeded the lower limit of quantification (LLOQ).
# PopPK analyses were conducted using a non-linear mixed-effect modeling program, NONMEM, version 7.5 (Icon Development Solutions, USA). Model development utilized first-order conditional estimation to assess the interaction between patient variability and residual variability. One- or two-compartment structural models were evaluated for both ELF and plasma drug exposure to establish the basic model that best fitted the original data. […]
# [2] = test system: Pseudomonas aeruginosa (ATCC 27853, PAO1, and FADDI-PA022); details: cited from earlier work
# Source text: Monte Carlo simulations were used to determine the probability of target attainment (PTA), aiding in the selection of the optimal dosage regimen. According to consensus guidelines, the fAUC/MIC is the most relevant PK/PD index associated with bacterial killing ([11]). In this study, we evaluated the PTA of fAUC/MIC across different dosage regimens in cases of pathogenic infection with varying MIC values to better understand the optimal treatment approach. The preclinical data on PMB are limited, and its in vitro activities are similar to those of colistin ([11], [27]). […] Such high fAUC/MIC ...
# [3] = test system: Acinetobacter baumannii (ATCC 19606, 248–01-C.248, and N-16870.213); details: cited from earlier work
# [4] = plasma; cited from earlier work
# Source text: Monte Carlo simulations were used to determine the probability of target attainment (PTA), aiding in the selection of the optimal dosage regimen. According to consensus guidelines, the fAUC/MIC is the most relevant PK/PD index associated with bacterial killing ([11]). In this study, we evaluated the PTA of fAUC/MIC across different dosage regimens in cases of pathogenic infection with varying MIC values to better understand the optimal treatment approach. The preclinical data on PMB are limited, and its in vitro activities are similar to those of colistin ([11], [27]). Consequently, some data ...
# [5] = cited from earlier work
# Source text: The issue of dosage adjustments based on renal function has been a contentious topic ...
# [6] = test system: extensively drug-resistant GNB; details: cited from earlier work
# Description: While an IV loading dose enhances early plasma exposure of PMB, it has minimal impact on early ELF exposure. […] Currently, the dosing regimen for PMB nebulization in clinical practice is predominantly empirical, typically involving doses of 25 or 50 mg administered twice daily ([19][–][21]). In a PK analysis of 105 patients ...
# [7] = test system: human alveolar epithelial A549 cells; parameters: method as in PMID 34228550, PMID 28416543; details: cited from earlier work
# [8] = test system: Pseudomonas aeruginosa; parameters: method as in PMID 28031207; details: ELF; cited from earlier work
# [9] = bootstrap median, 1,000 resampled data sets
compound,measurement,setting,value
"CC[C@H](C)CCCCC(=O)N[C@@H](CCN)C(=O)N[C@H](C(=O)N[C@@H](CCN)C(=O)N[C@H]1CCNC(=O)[C@H]([C@@H](C)O)NC(=O)[C@H](CCN)NC(=O)[C@H](CCN)NC(=O)[C@H](CC(C)C)NC(=O)[C@@H](Cc2ccccc2)NC(=O)[C@H](CCN)NC1=O)[C@@H](C)O [PMB, Polymyxin B] (X1-[Dab]T[Dab][Dab][Dab][dF]L[Dab][Dab]T; lactam 4-C)",AGE on V3 (covariate effect),[1]; [9],1.28
same,ALB on CL3 (covariate effect),[1]; [9],−0.894
same,"CL1, central compartment clearance of plasma",[1]; [9],1.39 L/h
same,"CL2, intercompartmental clearance of plasma",[1]; [9],13.1 L/h
same,"CL3, central compartment clearance of ELF",[1]; [9],0.186 L/h
same,"CL4, intercompartmental clearance of ELF",[1]; [9],3.44 L/h
same,"F, bioavailability of nebulization",[1]; [9],0.556
same,"Q, intercompartmental clearance between compartments 1 and 3",[1]; [9],0.03 L/h
same,"V1, central compartment distribution volume of plasma",[1]; [9],27.59 L
same,"V2, intercompartmental (peripheral) distribution volume of plasma",[1]; [9],17.11 L
same,"V3, central compartment distribution volume of ELF",[1]; [9],0.896 L
same,"V4, intercompartmental (peripheral) distribution volume of ELF",[1]; [9],4.33 L
same,"AUC24h, ELF","[1]; epithelial lining fluid, 76 patients, median (interquartile range), nebulized PMB 25 mg q12h alone or with IV PMB, LC-MS/MS, urea-corrected BAL",52.5 (35.3–102.8) mg·h/L
same,AGE on V3 (covariate effect),[1]; final PopPK model estimate,1.28
same,ALB on CL3 (covariate effect),[1]; final PopPK model estimate,−0.893
same,"CL2, intercompartmental clearance of plasma",[1]; final PopPK model estimate,13.11 L/h
same,"CL3, central compartment clearance of ELF",[1]; final PopPK model estimate,0.186 L/h
same,"CL4, intercompartmental clearance of ELF",[1]; final PopPK model estimate,3.44 L/h
same,"F, bioavailability of nebulization (fraction of drug reaching the lungs)",[1]; final PopPK model estimate,0.557
same,"Q, intercompartmental clearance between compartments 1 and 3 (plasma and ELF)",[1]; final PopPK model estimate,0.03 L/h
same,"V1, central compartment distribution volume of plasma",[1]; final PopPK model estimate,27.6 L
same,"V2, intercompartmental (peripheral) distribution volume of plasma",[1]; final PopPK model estimate,17.1 L
same,"V3, central compartment distribution volume of ELF",[1]; final PopPK model estimate,0.896 L
same,"V4, intercompartmental (peripheral) distribution volume of ELF",[1]; final PopPK model estimate,4.35 L
same,clearance,"[1]; human, plasma, final PopPK model estimate, NONMEM, 76 patients, steady state, read-out: CL1, central compartment clearance of plasma (converted)",23.2 mL/min
same,"AUC24h, plasma","[1]; plasma, median (interquartile range), nebulized PMB alone or with IV PMB, LC-MS/MS",35.0 (22.0–54.2) mg·h/L
same,AUC/MIC targets in ELF associated with antibacterial activity,[2],"1,326 to 1,506"
same,AUC/MIC targets in ELF associated with antibacterial activity,[3],326 to 989
same,unbound fraction,[4],0.42
same,average urine recovery rate,[5],23.56%
same,CL1,[5]; range across previous PMB two-compartment models,1.19 to 2.63 L/h
same,CL2,[5]; range across previous studies,1.98 to 13.83 L/h
same,V1,[5]; range across previous studies,6.35 to 33.77 L
same,V2,[5]; range across previous studies,7.92 to 78.2 L
same,urinary recovery rate,"[5]; range, ref 39 (Sandri et al.)",0.98% to 17.4%
same,"bacterial clearance time, inhalation group vs IV group",[6]; P = 0.002,significantly shorter
same,"risk of acute kidney injury, inhalation group vs IV group",[6]; P = 0.025,trend toward a reduced risk
same,effect on human alveolar epithelial A549 cells,[7],"disrupt redox balance, mitochondrial beta-oxidation, and membrane lipid biosynthesis"
colistin,fAUCELF/MIC targets,[8],"684–1,050"

# Source: paper PMC12057357, “Population pharmacokinetics study on nebulized and intravenous administration of polymyxin B in patients with pneumonia caused by multidrug-resistant gram-negative bacteria” (Antimicrobial Agents and Chemotherapy, 2025)
